Data taken from patent US9850225B2, “Compounds useful as immunomodulators” (BRISTOL-MYERS SQUIBB COMPANY, priority 2014, dated 2017).

Molecular target: PD-1/PD-L1 interaction (PD-1-Ig / PD-L1-His) (Homo sapiens (Human), UniProt Q9NZQ7)
Assay: PD-1/PD-L1 Homogenous Time-Resolved Fluorescence (HTRF) binding assay
Details: PD-1/PD-L1 HTRF binding assay; numeric value; read-out: Range or IC50
Summary of the method: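 HTRF detection used 1 nM europium-cryptate anti-Ig and 20 nM APC anti-His. Compounds first saw 10 nM PD-L1-His for 15 min, and 20 nM PD-1-Ig was then added for another 15 min. Buffer was dPBS plus 0.1% BSA and 0.05% Tween-20. All concentrations are final.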

PD-1/PD-L1 interaction (PD-1-Ig / PD-L1-His), sequence (Q9NZQ7 other isoform, or with tags, fused parts or gaps): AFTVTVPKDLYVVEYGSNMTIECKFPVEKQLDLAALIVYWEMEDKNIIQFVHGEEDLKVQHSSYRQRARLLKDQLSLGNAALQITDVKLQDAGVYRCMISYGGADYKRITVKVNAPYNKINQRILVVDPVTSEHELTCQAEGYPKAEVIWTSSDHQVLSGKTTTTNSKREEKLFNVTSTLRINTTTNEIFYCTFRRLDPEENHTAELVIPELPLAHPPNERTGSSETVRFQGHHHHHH

SMILES | IC50
CC(=O)NCCNCc1ccc(OCc2cccc(-c3ccccc3)c2C)cc1OCc1cccc(OC(F)(F)F)c1 [Example 1082, N-(2-((4-((2-methyl-[1,1′-biphenyl]-3-yl)methoxy)-2-((3-(trifluoromethoxy)benzyl)oxy)benzyl)amino)ethyl)acetamide] | 828 nM
CC(=O)NCCNCc1ccc(OCc2cccc(-c3ccccc3)c2C)cc1OCc1cc(C#N)ccc1F [Example 1095, N-(2-((2-((5-cyano-2-fluorobenzyl)oxy)-4-((2-methyl-[1,1′-biphenyl]-3-yl)methoxy)benzyl)amino)ethyl)acetamide] | 81.2 nM

Same assay, conditions: PD-1/PD-L1 HTRF binding assay; value given as range class; read-out: Range or IC50

SMILES | IC50
CC(=O)NCCNCc1ccc(OCc2cccc(-c3ccccc3)c2C)cc1OCc1cccc2cccnc12 [Example 1074, N-(2-((4-((2-methyl-[1,1′-biphenyl]-3-yl)methoxy)-2-(quinolin-8-ylmethoxy)benzyl)amino)ethyl)acetamide] | 100 to 20000 nM
CC(=O)NCCNCc1ccc(OCc2cccc(-c3ccccc3)c2C)cc1OCc1ccc(F)cc1 [Example 1075, N-(2-((2-((4-fluorobenzyl)oxy)-4-((2-methyl-[1,1′-biphenyl]-3-yl)methoxy)benzyl)amino)ethyl)acetamide] | 100 to 20000 nM
CC(=O)NCCNCc1ccc(OCc2cccc(-c3ccccc3)c2C)cc1OCc1cccc(Oc2ccccc2F)c1 [Example 1077, N-(2-((2-((3-(2-fluorophenoxyl)benzyl)oxy)-4-((2-methyl-[1,1′-biphenyl]-3-yl)methoxy)benzyl)amino)ethyl)acetamide] | 100 to 20000 nM
CC(=O)NCCNCc1ccc(OCc2cccc(-c3ccccc3)c2C)cc1OCc1cccc(Oc2ccc(F)cc2)c1 [Example 1078, N-(2-((2-((3-(4-fluorophenoxyl)benzyl)oxy)-4-((2-methyl-[1,1′-biphenyl]-3-yl)methoxy)benzyl)amino)ethyl)acetamide] | 100 to 20000 nM
CC(=O)NCCNCc1ccc(OCc2cccc(-c3ccccc3)c2C)cc1OCc1cc(C(F)(F)F)ccc1F [Example 1080, N-(2-((2-((2-fluoro-5-(trifluoromethyl)benzyl)oxy)-4-((2-methyl-[1,1′-biphenyl]-3-yl)methoxy)benzyl)amino)ethyl)acetamide] | 100 to 20000 nM
CC(=O)NCCNCc1ccc(OCc2cccc(-c3ccccc3)c2C)cc1OCc1cc(F)cc(C(F)(F)F)c1 [Example 1081, N-(2-((2-((3-fluoro-5-(trifluoromethyl)benzyl)oxy)-4-((2-methyl-[1,1′-biphenyl]-3-yl)methoxy)benzyl)amino)ethyl)acetamide] | 100 to 20000 nM
CC(=O)NCCNCc1ccc(OCc2cccc(-c3ccccc3)c2C)cc1OCc1ccc2nc(C(F)(F)F)cc(Cl)c2c1 [Example 1083, N-(2-((2-((4-chloro-2-(trifluoromethyl)quinolin-6-yl)methoxy)-4-((2-methyl-[1,1′-biphenyl]-3-yl)methoxy)benzyl)amino)ethyl)acetamide] | 100 to 20000 nM
CC(=O)NCCNCc1ccc(OCc2cccc(-c3ccccc3)c2C)cc1OCc1ccc(S(C)(=O)=O)cc1 [Example 1084, N-(2-((4-((2-methyl-[1,1′-biphenyl]-3-yl)methoxy)-2-((4-(methylsulfonyl)benzyl)oxy)benzyl)amino)ethyl)acetamide] | 100 to 20000 nM
CC(=O)NCCNCc1ccc(OCc2cccc(-c3ccccc3)c2C)cc1OCc1ccccc1OC(F)F [Example 1085, N-(2-((2-((2-(difluoromethoxy)benzyl)oxy)-4-((2-methyl-[1,1′-biphenyl]-3-yl)methoxy)benzyl)amino)ethyl)acetamide] | 100 to 20000 nM
COc1cccc(COc2cc(OCc3cccc(-c4ccccc4)c3C)ccc2CNCCNC(C)=O)c1 [Example 1086, N-(2-((2-((3-methoxybenzyl)oxy)-4-((2-methyl-[1,1′-biphenyl]-3-yl)methoxy)benzyl)amino)ethyl)acetamide] | 100 to 20000 nM
CC(=O)NCCNCc1ccc(OCc2cccc(-c3ccccc3)c2C)cc1OCc1ccccc1OC(F)(F)F [Example 1087, N-(2-((4-((2-methyl-[1,1′-biphenyl]-3-yl)methoxy)-2-((2-(trifluoromethoxy)benzyl)oxy)benzyl)amino)ethyl)acetamide] | 100 to 20000 nM
CC(=O)NCCNCc1ccc(OCc2cccc(-c3ccccc3)c2C)cc1OCc1ccc(OC(F)F)cc1 [Example 1088, N-(2-((2-((4-(difluoromethoxy)benzyl)oxy)-4-((2-methyl-[1,1′-biphenyl]-3-yl)methoxy)benzyl)amino)ethyl)acetamide] | 100 to 20000 nM
CC(=O)NCCNCc1ccc(OCc2cccc(-c3ccccc3)c2C)cc1OCc1ccc(-c2ccccc2C#N)cc1 [Example 1089, N-(2-((2-((2′-cyano-[1,1′-biphenyl]-4-yl)methoxy)-4-((2-methyl-[1,1′-biphenyl]-3-yl)methoxy)benzyl)amino)ethyl)acetamide] | 100 to 20000 nM
COc1ccc(COc2cc(OCc3cccc(-c4ccccc4)c3C)ccc2CNCCNC(C)=O)cc1 [Example 1090, N-(2-((2-((4-methoxybenzyl)oxy)-4-((2-methyl-[1,1′-biphenyl]-3-yl)methoxy)benzyl)amino)ethyl)acetamide] | 100 to 20000 nM
CC(=O)NCCNCc1ccc(OCc2cccc(-c3ccccc3)c2C)cc1OCc1cc(F)cc(Cl)c1 [Example 1091, N-(2-((2-((3-chloro-5-fluorobenzyl)oxy)-4-((2-methyl-[1,1′-biphenyl]-3-yl)methoxy)benzyl)amino)ethyl)acetamide] | 100 to 20000 nM
COc1ccc(F)c(COc2cc(OCc3cccc(-c4ccccc4)c3C)ccc2CNCCNC(C)=O)c1F [Example 1092, N-(2-((2-((2,6-difluoro-3-methoxybenzyl)oxy)-4-((2-methyl-[1,1′-biphenyl]-3-yl)methoxy)benzyl)amino)ethyl)acetamide] | 100 to 20000 nM
COc1cc(COc2cc(OCc3cccc(-c4ccccc4)c3C)ccc2CNCCNC(C)=O)ccc1F [Example 1093, N-(2-((2-((4-fluoro-3-methoxybenzyl)oxy)-4-((2-methyl-[1,1′-biphenyl]-3-yl)methoxy)benzyl)amino)ethyl)acetamide] | 100 to 20000 nM
CC(=O)NCCNCc1ccc(OCc2cccc(-c3ccccc3)c2C)cc1OCc1cc(C)ccc1F [Example 1094, N-(2-((2-((2-fluoro-5-methylbenzyl)oxy)-4-((2-methyl-[1,1′-biphenyl]-3-yl)methoxy)benzyl)amino)ethyl)acetamide] | 100 to 20000 nM
COc1cc(F)cc(COc2cc(OCc3cccc(-c4ccccc4)c3C)ccc2CNCCNC(C)=O)c1 [Example 1096, N-(2-((2-((3-fluoro-5-methoxybenzyl)oxy)-4-((2-methyl-[1,1′-biphenyl]-3-yl)methoxy)benzyl)amino)ethyl)acetamide] | 100 to 20000 nM
CC(=O)NCCNCc1ccc(OCc2cccc(-c3ccccc3)c2C)cc1OCc1ccc(Br)cc1C#N [Example 1097, N-(2-((2-((4-bromo-2-cyanobenzyl)oxy)-4-((2-methyl-[1,1′-biphenyl]-3-yl)methoxy)benzyl)amino)ethyl)acetamide] | 100 to 20000 nM
CC(=O)NCCNCc1ccc(OCc2cccc(-c3ccccc3)c2C)cc1OCc1ccc2[nH]ncc2c1 [Example 1098, N-(2-((2-((1H-indazol-5-yl)methoxy)-4-((2-methyl-[1,1′-biphenyl]-3-yl)methoxy)benzyl)amino)ethyl)acetamide] | 100 to 20000 nM
CC(=O)NCCNCc1ccc(OCc2cccc(-c3ccccc3)c2C)cc1OCc1ccc2c(cnn2C2CCCCO2)c1 (centres unmarked) [Example 1099, N-(2-((4-((2-methyl-[1,1′-biphenyl]-3-yl)methoxy)-2-((1-(tetrahydro-2H-pyran-2-yl)-1H-indazol-5-yl)methoxy)benzyl)amino)ethyl)acetamide] | 100 to 20000 nM
CC(=O)NCCNCc1ccc(OCc2cccc(-c3ccccc3)c2C)cc1OCc1ccncn1 [Example 1100, N-(2-((4-((2-methyl-[1,1′-biphenyl]-3-yl)methoxy)-2-(pyrimidin-4-ylmethoxy)benzyl)amino)ethyl)acetamide] | 100 to 20000 nM
COC(=O)Cc1cccc(COc2cc(OCc3cccc(-c4ccccc4)c3C)ccc2CNCCNC(C)=O)c1 [Example 1101, methyl 2-(3-((2-(((2-acetamidoethyl)amino)methyl)-5-((2-methyl-[1,1′-biphenyl]-3-yl)methoxy)phenoxy)methyl)phenyl)acetate] | 100 to 20000 nM
CC(=O)NCCNCc1ccc(OCc2cccc(-c3ccccc3)c2C)cc1OCc1ccc2cn[nH]c2c1 [Example 1102, N-(2-((2-((1H-indazol-6-yl)methoxy)-4-((2-methyl-[1,1′-biphenyl]-3-yl)methoxy)benzyl)amino)ethyl)acetamide] | 100 to 20000 nM
COC(=O)c1ccc(F)c(COc2cc(OCc3cccc(-c4ccccc4)c3C)ccc2CNCCNC(C)=O)c1 [Example 1103, methyl 3-((2-(((2-acetamidoethyl)amino)methyl)-5-((2-methyl-[1,1′-biphenyl]-3-yl)methoxy)phenoxy)methyl)-4-fluorobenzoate] | 100 to 20000 nM
CC(=O)NCCNCc1ccc(OCc2cccc(-c3ccccc3)c2C)cc1OCc1noc(C)n1 [Example 1104, N-(2-((2-((5-methyl-1,2,4-oxadiazol-3-yl)methoxy)-4-((2-methyl-[1,1′-biphenyl]-3-yl)methoxy)benzyl)amino)ethyl)acetamide] | 100 to 20000 nM
CC(=O)NCCNCc1ccc(OCc2cccc(-c3ccccc3)c2C)cc1OCc1cccc(C(=O)OC(C)(C)C)c1 [Example 1105, tert-butyl 3-((2-(((2-acetamidoethyl)amino)methyl)-5-((2-methyl-[1,1′-biphenyl]-3-yl)methoxy)phenoxy)methyl)benzoate] | 100 to 20000 nM
CC(=O)NCCNCc1ccc(OCc2cccc(-c3ccccc3)c2C)cc1OCc1cc(F)cc(OC(F)(F)F)c1 [Example 1106, N-(2-((2-((3-fluoro-5-(trifluoromethoxy)benzyl)oxy)-4-((2-methyl-[1,1′-biphenyl]-3-yl)methoxy)benzyl)amino)ethyl)acetamide] | 100 to 20000 nM

Same assay, conditions: read-out: Range or IC50

SMILES | IC50
CC(=O)NCCNCc1ccc(OCc2cccc(-c3ccccc3)c2C)cc1OCc1cccc([N+](=O)[O-])c1 [Example 1076] | 10 to 100 nM
